The source of these data is US20260078099A1, “COMPOUND, PREPARATION METHOD THEREOF, AND LIPID NANOPARTICLE AND PHARMACEUTICAL COMPOSITION” (priority 2023, published 2026).

Data set [1] in a line: LNP encapsulation efficiency (Quant-it Ribogreen). Type of data set: physicochemical. To be noted: mRNA LNP, cationic lipid/DSPC/cholesterol/PEG-lipid 50:10:38.5:1.5.
The nature of data set [2]: Dose-response study, Luc mRNA intramuscular. The class given is in vivo. The following applies: mRNA doses 0.25, 0.05 and 0.01 mg/kg. The method, then:
Samples containing firefly luciferase (Luc) mRNA were administered intramuscularly to evaluate protein expression. […] As the dose decreased, the injection site's expression proportion increased. A26, A47, and B38 maintained injection site flux levels of 0.3-3×10^10 (p/s) across all doses.

For data set [3], the system named is mice. Kind of data set: Bioluminescent study, intramuscular injection of F-luc mRNA LNPs. The following applies: F-luc luminescence flux normalized to MC3; 0.25 mg/kg intramuscular, mice n=3, 6-hour time point. Type of data set: in vivo. The method in brief: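 Mice (n=3) received LNP-formulated F-luc mRNA at 0.25 mg/kg intramuscularly. Bioluminescence was read 6 h after dosing. Test LNPs were made with an MC3 formulation, and PBS served as control in some groups.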

The nature of data set [4]: LNP size and PDI by dynamic light scattering. The following applies: for PDI / Size (nm): mRNA LNP, cationic lipid/DSPC/cholesterol/PEG-lipid 50:10:38.5:1.5. The class given is physicochemical.
Data set [5] in a line: LNP zeta potential. The class given is physicochemical. The following applies: mRNA LNP.

Take `CCCCCCCCNC(=O)C(CCCCCCCC)N(CCCN(C)C)C(=O)CCCCCCC(=O)OC(CCCCCCCC)CCCCCCCC` (centres unmarked) [Compound A26]: the “Encapsulation efficiency (%)” value in data set [1] is recorded as 94.09%. The “dose-response of Luc expression” value in data set [2] is “clear dose-response gradient”. In addition, the “Relative Total flux” value in data set [3] is “A (A: ≥2)”. In addition, in data set [4], the PDI was determined as 0.11 and the “Size (nm)” value came to 94.21 nm. For the same compound, the “particle sizes by dynamic light scattering (FIG. 22)” value in data set [4] (mRNA-loaded LNPs) is on record as “approximately 100 nm”. In data set [5], the “Zeta potential (mV)” value is reported as 2.30 mV.

On to `CCCCCCCC(C(=O)NCCCCCCCCCC(=O)OC(CCCCCC)CCCCCC)N(CCCN(C)CCO)C(=O)CCCCCCCCCC(=O)OC(CCCCCC)CCCCCC` (centres unmarked) [Compound B8], for which the “Encapsulation efficiency (%)” value in data set [1] came to 91.38%. Moreover, the “Relative Total flux” value in data set [3] is on record as “A (A: ≥2)”. Further, in data set [4], the PDI is recorded as 0.152 and the “Size (nm)” value was determined as 60.47 nm. Also, the “Zeta potential (mV)” value in data set [5] was −7.30 mV.

`CCCCCCCCC(CCCCCC)COC(=O)CCCCCNC(=O)C(CCCCC)N(CCCCN1CCCC1)C(=O)CCCCCC(=O)OCC(CCCCCC)CCCCCCCC` (centres unmarked) [Compound A46]: in data set [1], the “Encapsulation efficiency (%)” value worked out at 94.31%. In addition, the “Relative Total flux” value in data set [3] is given as “A (A: ≥2)”. In data set [4], the PDI is 0.19 and the “Size (nm)” value is reported as 107.50 nm. Further, in data set [5], the “Zeta potential (mV)” value is −0.55 mV.
